The values below are quoted from earlier work in article PMC2742322 (Bioorganic & medicinal chemistry letters, 2008).

As usually defined, the IC50 is the concentration needed to halve the response being measured.

This series concerns the target μ-opioid receptor (Cavia porcellus, UniProt A0ACM8Q262). As to conditions: read-out: IC50^μ (GPI); functional bioactivity.

μ-opioid receptor, sequence (A0ACM8Q262 1-400): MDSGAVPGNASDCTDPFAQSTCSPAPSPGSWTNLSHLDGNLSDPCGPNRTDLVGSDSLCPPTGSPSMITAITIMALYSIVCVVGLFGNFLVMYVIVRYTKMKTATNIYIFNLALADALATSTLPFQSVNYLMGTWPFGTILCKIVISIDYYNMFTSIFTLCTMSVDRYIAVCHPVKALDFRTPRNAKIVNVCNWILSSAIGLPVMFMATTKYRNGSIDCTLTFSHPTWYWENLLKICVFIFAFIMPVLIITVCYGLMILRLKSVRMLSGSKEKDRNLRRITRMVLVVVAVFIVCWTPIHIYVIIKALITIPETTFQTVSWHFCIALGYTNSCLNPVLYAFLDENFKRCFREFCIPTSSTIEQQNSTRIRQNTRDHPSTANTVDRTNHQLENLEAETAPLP

In the case of Tyr^1-Pro^2-Trp^3-Phe^4-NH2 [EM-1], the IC50 was 9.7 ± 2.21 nM.
